{
  "source": "ChEMBL document CHEMBL5329205",
  "about": "“Development of novel quinoline-NO donor hybrids inducing human breast cancer cells apoptosis via inhibition of topoisomerase I” (Bioorg Med Chem, 2023)",
  "key": {"A549": {"tested_on": "A549", "assay": "Antiproliferative activity against human A549 cells assessed as inhibition of cell growth incubated for 48 hrs by MTT assay", "type": "functional, cell-based", "settings": "A549, 48 h"}, "HCT-116": {"tested_on": "HCT-116", "assay": "Antiproliferative activity against human HCT-116 cells assessed as inhibition of cell growth incubated for 48 hrs by MTT assay", "type": "functional, cell-based", "settings": "HCT-116, 48 h"}, "MCF7 [1]": {"tested_on": "MCF7", "assay": "Antiproliferative activity against human MCF7 cells assessed as inhibition of cell growth incubated for 48 hrs by MTT assay", "type": "functional, cell-based", "settings": "MCF7, 48 h"}, "NCI/ADR-RES": {"tested_on": "NCI/ADR-RES", "assay": "Antiproliferative activity against human MCF7ADR cells assessed as inhibition of cell growth measured after 48 hrs by MTT assay", "type": "functional, cell-based"}, "[2]": {"assay": "Cytotoxicity against human MCF-10A cells assessed as cell growth inhibition measured after 48 hrs by MTT assay", "type": "toxicity, cell-based"}, "MCF7 [3]": {"tested_on": "MCF7", "assay": "Antitumor activity against human MCF7 cells xenografted in BALB/c nude mouse assessed as reduction in tumor weight at 10 mg/kg, ip administered once every two days for 3 weeks relative to control", "type": "functional", "parameters": "scale not given: the % may be the effect or the level left"}, "[4]": {"assay": "Toxicity in BALB/c mouse xenografted with human MCF7 cells assessed as heart damage at 10 mg/kg, ip administered once every two days for 3 weeks by H and E staining based microscopic analysis", "type": "organism-based", "settings": "in vivo, 504 h"}, "[5]": {"assay": "Toxicity in BALB/c mouse xenografted with human MCF7 cells assessed as liver damage at 10 mg/kg, ip administered once every two days for 3 weeks by H and E staining based microscopic analysis", "type": "organism-based", "settings": "in vivo, 504 h"}, "[6]": {"assay": "Toxicity in BALB/c mouse xenografted with human MCF7 cells assessed as spleen damage at 10 mg/kg, ip administered once every two days for 3 weeks by H and E staining based microscopic analysis", "type": "organism-based", "settings": "in vivo, 504 h"}, "[7]": {"assay": "Toxicity in BALB/c mouse xenografted with human MCF7 cells assessed as lung damage at 10 mg/kg, ip administered once every two days for 3 weeks by H and E staining based microscopic analysis", "type": "organism-based", "settings": "in vivo, 504 h"}, "[8]": {"assay": "Toxicity in BALB/c mouse xenografted with human MCF7 cells assessed as kidney damage at 10 mg/kg, ip administered once every two days for 3 weeks by H and E staining based microscopic analysis", "type": "organism-based", "settings": "in vivo, 504 h"}},
  "data": [
    {"smiles": "COc1cc(-c2cc(C(=O)OCCCCOc3no[n+]([O-])c3S(=O)(=O)c3ccccc3)c3ccccc3n2)cc(OC)c1OC", "values": [
      {"measurement": "IC50", "setting": "A549", "value": 2.41, "unit": "µM"},
      {"measurement": "IC50", "setting": "HCT-116", "value": 2.03, "unit": "µM"},
      {"measurement": "IC50", "setting": "MCF7 [1]", "value": 1.47, "unit": "µM"},
      {"measurement": "IC50", "setting": "NCI/ADR-RES", "value": 1.09, "unit": "µM"},
      {"measurement": "IC50 at 48 h", "setting": "[2]", "value": 36.5, "unit": "µM"}
    ]},
    {"smiles": "COc1cc(-c2cc(C(=O)O)c3ccccc3n2)cc(OC)c1OC", "values": [
      {"measurement": "IC50", "setting": "MCF7 [1]", "value": "> 50", "unit": "µM"}
    ]},
    {"smiles": "COc1cc(-c2cc(C(=O)OCCCCCCOc3no[n+]([O-])c3S(=O)(=O)c3ccccc3)c3ccccc3n2)cc(OC)c1OC", "values": [
      {"measurement": "IC50", "setting": "A549", "value": 2.71, "unit": "µM"},
      {"measurement": "IC50", "setting": "HCT-116", "value": 4.35, "unit": "µM"},
      {"measurement": "IC50", "setting": "MCF7 [1]", "value": 3.16, "unit": "µM"},
      {"measurement": "IC50", "setting": "NCI/ADR-RES", "value": 3.32, "unit": "µM"},
      {"measurement": "IC50 at 48 h", "setting": "[2]", "value": 28.2, "unit": "µM"}
    ]},
    {"smiles": "O=S(=O)(c1ccccc1)c1c(OCCCCCO)no[n+]1[O-]", "values": [
      {"measurement": "IC50", "setting": "MCF7 [1]", "value": 14.4, "unit": "µM"}
    ]},
    {"smiles": "COc1cc(-c2cc(C(=O)OCCCOc3no[n+]([O-])c3S(=O)(=O)c3ccccc3)c3ccccc3n2)cc(OC)c1OC", "values": [
      {"measurement": "IC50", "setting": "A549", "value": 2.3, "unit": "µM"},
      {"measurement": "IC50", "setting": "HCT-116", "value": 2.49, "unit": "µM"},
      {"measurement": "IC50", "setting": "MCF7 [1]", "value": 1.66, "unit": "µM"},
      {"measurement": "IC50", "setting": "NCI/ADR-RES", "value": 1.27, "unit": "µM"},
      {"measurement": "IC50 at 48 h", "setting": "[2]", "value": 30.7, "unit": "µM"}
    ]},
    {"smiles": "O=C(OCCOc1no[n+]([O-])c1S(=O)(=O)c1ccccc1)c1ccnc2ccccc12", "values": [
      {"measurement": "IC50", "setting": "A549", "value": 3.49, "unit": "µM"},
      {"measurement": "IC50", "setting": "HCT-116", "value": "> 5", "unit": "µM"},
      {"measurement": "IC50", "setting": "MCF7 [1]", "value": 4.6, "unit": "µM"},
      {"measurement": "IC50", "setting": "NCI/ADR-RES", "value": 3.32, "unit": "µM"},
      {"measurement": "IC50 at 48 h", "setting": "[2]", "value": 23.2, "unit": "µM"}
    ]},
    {"smiles": "O=C(O)c1ccnc2ccccc12", "values": [
      {"measurement": "IC50", "setting": "A549", "value": "> 50", "unit": "µM"},
      {"measurement": "IC50", "setting": "HCT-116", "value": "> 50", "unit": "µM"},
      {"measurement": "IC50", "setting": "MCF7 [1]", "value": "> 50", "unit": "µM"},
      {"measurement": "IC50", "setting": "NCI/ADR-RES", "value": "> 50", "unit": "µM"},
      {"measurement": "IC50 at 48 h", "setting": "[2]", "value": "> 50", "unit": "µM"}
    ]},
    {"smiles": "O=C(OCCCOc1no[n+]([O-])c1S(=O)(=O)c1ccccc1)c1ccnc2ccccc12", "values": [
      {"measurement": "IC50", "setting": "A549", "value": "> 5", "unit": "µM"},
      {"measurement": "IC50", "setting": "HCT-116", "value": 4.37, "unit": "µM"},
      {"measurement": "IC50", "setting": "MCF7 [1]", "value": 4.23, "unit": "µM"},
      {"measurement": "IC50", "setting": "NCI/ADR-RES", "value": 5.16, "unit": "µM"},
      {"measurement": "IC50 at 48 h", "setting": "[2]", "value": 25.4, "unit": "µM"}
    ]},
    {"smiles": "O=C(OCCCCCOc1no[n+]([O-])c1S(=O)(=O)c1ccccc1)c1ccnc2ccccc12", "values": [
      {"measurement": "IC50", "setting": "A549", "value": "> 5", "unit": "µM"},
      {"measurement": "IC50", "setting": "HCT-116", "value": 4.95, "unit": "µM"},
      {"measurement": "IC50", "setting": "MCF7 [1]", "value": "> 5", "unit": "µM"},
      {"measurement": "IC50", "setting": "NCI/ADR-RES", "value": 4.66, "unit": "µM"},
      {"measurement": "IC50 at 48 h", "setting": "[2]", "value": 4.21, "unit": "µM"}
    ]},
    {"smiles": "COc1cc(-c2cc(C(=O)OCCOc3no[n+]([O-])c3S(=O)(=O)c3ccccc3)c3ccccc3n2)cc(OC)c1OC", "values": [
      {"measurement": "IC50", "setting": "A549", "value": 2.69, "unit": "µM"},
      {"measurement": "IC50", "setting": "HCT-116", "value": 3.79, "unit": "µM"},
      {"measurement": "IC50", "setting": "MCF7 [1]", "value": 2.25, "unit": "µM"},
      {"measurement": "IC50", "setting": "NCI/ADR-RES", "value": 3.35, "unit": "µM"},
      {"measurement": "IC50 at 48 h", "setting": "[2]", "value": 16.3, "unit": "µM"}
    ]},
    {"smiles": "O=C(OCCCCOc1no[n+]([O-])c1S(=O)(=O)c1ccccc1)c1ccnc2ccccc12", "values": [
      {"measurement": "IC50", "setting": "A549", "value": "> 5", "unit": "µM"},
      {"measurement": "IC50", "setting": "HCT-116", "value": 4, "unit": "µM"},
      {"measurement": "IC50", "setting": "MCF7 [1]", "value": 4.22, "unit": "µM"},
      {"measurement": "IC50", "setting": "NCI/ADR-RES", "value": 4.28, "unit": "µM"},
      {"measurement": "IC50 at 48 h", "setting": "[2]", "value": 32.2, "unit": "µM"}
    ]},
    {"smiles": "COc1cccc2c1C(=O)c1c(O)c3c(c(O)c1C2=O)C[C@@](O)(C(=O)CO)C[C@@H]3O[C@H]1C[C@H](N)[C@H](O)[C@H](C)O1", "note": "[DOXORUBICIN]", "values": [
      {"measurement": "IC50", "setting": "A549", "value": 0.57, "unit": "µM"},
      {"measurement": "IC50", "setting": "HCT-116", "value": 0.72, "unit": "µM"}
    ]},
    {"smiles": "O=C(OCCCCCCOc1no[n+]([O-])c1S(=O)(=O)c1ccccc1)c1ccnc2ccccc12", "values": [
      {"measurement": "IC50", "setting": "A549", "value": "> 5", "unit": "µM"},
      {"measurement": "IC50", "setting": "HCT-116", "value": 4.97, "unit": "µM"},
      {"measurement": "IC50", "setting": "MCF7 [1]", "value": 4.22, "unit": "µM"},
      {"measurement": "IC50", "setting": "NCI/ADR-RES", "value": 5.51, "unit": "µM"},
      {"measurement": "IC50 at 48 h", "setting": "[2]", "value": 34.1, "unit": "µM"}
    ]},
    {"smiles": "CC(=O)O[C@H]1C(=O)[C@@]2(C)[C@H]([C@H](OC(=O)c3ccccc3)[C@]3(O)C[C@H](OC(=O)[C@H](O)[C@@H](NC(=O)c4ccccc4)c4ccccc4)C(C)=C1C3(C)C)[C@]1(OC(C)=O)CO[C@@H]1C[C@@H]2O", "note": "[PACLITAXEL]", "values": [
      {"measurement": "Activity", "setting": "MCF7 [3]", "value": 61.18, "unit": "%"},
      {"measurement": "Activity", "setting": "[4]", "value": "Non-Toxic"},
      {"measurement": "Activity", "setting": "[5]", "value": "Non-Toxic"},
      {"measurement": "Activity", "setting": "[6]", "value": "Non-Toxic"},
      {"measurement": "Activity", "setting": "[7]", "value": "Non-Toxic"},
      {"measurement": "Activity", "setting": "[8]", "value": "Non-Toxic"}
    ]}
  ]
}
